Laboratory results published in patent publication US20250186437A1, “CARBOLINE COMPOUNDS AND USE THEREOF” (PTC Therapeutics, Inc., priority 2021, published 2025).

System: MOLM-13 cells
Experiment: MOLM-13 Cell Proliferation Assay (indicator of DHODH inhibition)
Assay type: cell-based
Conditions: Homo sapiens, 72 Hours of culture, CellTiter-Glo, no uridine
Method in brief: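 Proliferation readout via CellTiter-Glo luminescence after 72 h compound treatment (37 °C, 5% CO2, 0.5% DMSO) of MOLM-13 cells seeded at 10^4 per well in RPMI 1640/10% FBS, used as a DHODH-inhibition indicator since these cells rely on de novo pyrimidine synthesis.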

| Compound | IC50 [nM] |
| --- | --- |
| FC(F)(F)c1cc(C(F)(F)F)nc(N2CCc3c([nH]c4ccc(-n5nccn5)cc34)C2c2cnc(N3CCOCC3)nc2)n1 (stereo not shown) [Compound 482, 2-[4,6-bis(trifluoromethyl)pyrimidin-2-yl]-1-[2-(morpholin-4-yl)pyrimidin-5-yl]-6-(2H-1,2,3-triazol-2-yl)-2,3,4,9-tetrahydro-1H-pyrido[3,4-b]indole] | 0.8 |
| Cc1cnn(-c2ccc3[nH]c4c(c3c2)CCN(c2nc(C(F)(F)F)cc(C(F)(F)F)n2)C4c2cnc(N3CCOCC3)nc2)n1 (stereo not shown) [Compound 483, 2-[4,6-bis(trifluoromethyl)pyrimidin-2-yl]-6-(4-methyl-2H-1,2,3-triazol-2-yl)-1-[2-(morpholin-4-yl)pyrimidin-5-yl]-2,3,4,9-tetrahydro-1H-pyrido[3,4-b]indole] | 8.5 |
| CN1CCN(c2ncc([C@H]3c4[nH]c5ccc(Cl)cc5c4CCN3c3nccc(C(F)(F)F)n3)cn2)CC1 [Compound 484, (1S)-6-chloro-1-[2-(4-methylpiperazin-1-yl)pyrimidin-5-yl]-2-[4-(trifluoromethyl)pyrimidin-2-yl]-2,3,4,9-tetrahydro-1H-pyrido[3,4-b]indole] | 2.6 |
| FC(F)(F)c1cc(C(F)(F)F)nc(N2CCc3c([nH]c4ccc(-n5nccn5)cc34)[C@@H]2c2ccc(N3CCOCC3)nc2)n1 [Compound 485, (1S)-2-[4,6-bis(trifluoromethyl)pyrimidin-2-yl]-1-[6-(morpholin-4-yl)pyridin-3-yl]-6-(2H-1,2,3-triazol-2-yl)-2,3,4,9-tetrahydro-1H-pyrido[3,4-b]indole] | 0.6 |
| FC(F)(F)c1nc(N2CCc3c([nH]c4ccc(-n5nccn5)cc34)[C@@H]2c2ccc(N3CCOCC3)nc2)nc(C(F)(F)F)n1 [Compound 486, (1S)-2-[4,6-bis(trifluoromethyl)-1,3,5-triazin-2-yl]-1-[6-(morpholin-4-yl)pyridin-3-yl]-6-(2H-1,2,3-triazol-2-yl)-2,3,4,9-tetrahydro-1H-pyrido[3,4-b]indole] | 0.4 |
| FC(F)(F)c1cc(C(F)(F)F)nc(N2CCc3c([nH]c4ccc(Br)cc34)[C@@H]2c2ccc(N3CCOCC3)nc2)n1 [Compound 487, (1S)-2-[4,6-bis(trifluoromethyl)pyrimidin-2-yl]-6-bromo-1-[6-(morpholin-4-yl)pyridin-3-yl]-2,3,4,9-tetrahydro-1H-pyrido[3,4-b]indole] | 0.2 |
| CN1CCN(c2ncc([C@H]3c4[nH]c5ccc(Cl)cc5c4CCN3c3ncnc(C(F)(F)F)n3)cn2)CC1 [Compound 488, (1S)-6-chloro-1-[2-(4-methylpiperazin-1-yl)pyrimidin-5-yl]-2-[4-(trifluoromethyl)-1,3,5-triazin-2-yl]-2,3,4,9-tetrahydro-1H-pyrido[3,4-b]indole] | 5.3 |
| CSc1nc(N2CCc3c([nH]c4ccc(Cl)cc34)[C@@H]2c2ccc(N3CCN(C)CC3)nc2)nc(C(F)(F)F)n1 [Compound 489, (1S)-6-chloro-1-[6-(4-methylpiperazin-1-yl)pyridin-3-yl]-2-[4-(methylsulfanyl)-6-(trifluoromethyl)-1,3,5-triazin-2-yl]-2,3,4,9-tetrahydro-1H-pyrido[3,4-b]indole] | 1.6 |
| Cc1ccc(C2c3[nH]c4ccc(F)cc4c3CCN2c2nc(C(F)(F)F)cc(C(F)(F)F)n2)c(F)c1F (stereo not shown) [Compound 490, 2-[4,6-bis(trifluoromethyl)pyrimidin-2-yl]-1-(2,3-difluoro-4-methylphenyl)-6-fluoro-2,3,4,9-tetrahydro-1H-pyrido[3,4-b]indole] | 2.8 |
| CN1CCN(c2ccc([C@H]3c4[nH]c5ccc(Cl)cc5c4CCN3c3ncnc(C(F)(F)F)n3)cn2)CC1 [Compound 491, (1S)-6-chloro-1-[6-(4-methylpiperazin-1-yl)pyridin-3-yl]-2-[4-(trifluoromethyl)-1,3,5-triazin-2-yl]-2,3,4,9-tetrahydro-1H-pyrido[3,4-b]indole] | 2.2 |
| Cc1ccc(C2c3[nH]c4ccc(F)cc4c3CCN2c2nc(C(F)(F)F)nc(C(F)(F)F)n2)c(F)c1F (stereo not shown) [Compound 492, 2-[4,6-bis(trifluoromethyl)-1,3,5-triazin-2-yl]-1-(2,3-difluoro-4-methylphenyl)-6-fluoro-2,3,4,9-tetrahydro-1H-pyrido[3,4-b]indole] | 3.2 |
| Cc1ccc(C2c3[nH]c4ccc(F)cc4c3CCN2c2nccc(C(F)(F)F)n2)c(F)c1F (stereo not shown) [Compound 493, 1-(2,3-difluoro-4-methylphenyl)-6-fluoro-2-[4-(trifluoromethyl)pyrimidin-2-yl]-2,3,4,9-tetrahydro-1H-pyrido[3,4-b]indole] | 25 |
| Cc1ccc(C2c3[nH]c4ccc(F)cc4c3CCN2c2ncnc(C(F)(F)F)n2)c(F)c1F (stereo not shown) [Compound 494, 1-(2,3-difluoro-4-methylphenyl)-6-fluoro-2-[4-(trifluoromethyl)-1,3,5-triazin-2-yl]-2,3,4,9-tetrahydro-1H-pyrido[3,4-b]indole] | 12 |
| CSc1nc(N2CCc3c([nH]c4ccc(F)cc34)C2c2ccc(C)c(F)c2F)nc(C(F)(F)F)n1 (stereo not shown) [Compound 495, 1-(2,3-difluoro-4-methylphenyl)-6-fluoro-2-[4-(methylsulfanyl)-6-(trifluoromethyl)-1,3,5-triazin-2-yl]-2,3,4,9-tetrahydro-1H-pyrido[3,4-b]indole] | 8.8 |
| CC1(C)CN(c2ncc([C@H]3c4[nH]c5ccc(Cl)cc5c4CCN3c3nc(C(F)(F)F)cc(C(F)(F)F)n3)cn2)CCN1 [Compound 496, (1S)-2-[4,6-bis(trifluoromethyl)pyrimidin-2-yl]-6-chloro-1-[2-(3,3-dimethylpiperazin-1-yl)pyrimidin-5-yl]-2,3,4,9-tetrahydro-1H-pyrido[3,4-b]indole] | 2.8 |
| Cc1ccc(C2c3[nH]c4ccc(Cl)cc4c3CCN2c2nc(C(F)(F)F)nc(C(F)(F)F)n2)c(F)c1F (stereo not shown) [Compound 497, 2-[4,6-bis(trifluoromethyl)-1,3,5-triazin-2-yl]-6-chloro-1-(2,3-difluoro-4-methylphenyl)-2,3,4,9-tetrahydro-1H-pyrido[3,4-b]indole] | 0.2 |
| FC(F)(F)c1ncnc(N2CCc3c([nH]c4ccc(-n5nccn5)cc34)[C@@H]2c2ccc(N3CCOCC3)nc2)n1 [Compound 498, (1S)-1-[6-(morpholin-4-yl)pyridin-3-yl]-6-(2H-1,2,3-triazol-2-yl)-2-[4-(trifluoromethyl)-1,3,5-triazin-2-yl]-2,3,4,9-tetrahydro-1H-pyrido[3,4-b]indole] | 0.7 |
| CN1CCN(c2ncc([C@H]3c4[nH]c5ccc(Br)cc5c4CCN3c3nc(C(F)(F)F)cc(C(F)(F)F)n3)cn2)CC1 [Compound 499, (1S)-2-[4,6-bis(trifluoromethyl)pyrimidin-2-yl]-6-bromo-1-[2-(4-methylpiperazin-1-yl)pyrimidin-5-yl]-2,3,4,9-tetrahydro-1H-pyrido[3,4-b]indole] | 0.3 |
| CN1CCN(c2ncc([C@H]3c4[nH]c5ccc(-n6nccn6)cc5c4CCN3c3nc(C(F)(F)F)cc(C(F)(F)F)n3)cn2)CC1 [Compound 500, (1S)-2-[4,6-bis(trifluoromethyl)pyrimidin-2-yl]-1-[2-(4-methylpiperazin-1-yl)pyrimidin-5-yl]-6-(2H-1,2,3-triazol-2-yl)-2,3,4,9-tetrahydro-1H-pyrido[3,4-b]indole] | 0.8 |
